# Reference: patent US20230053328A9, “COMBINATION THERAPIES USING CDK INHIBITORS” (Pfizer Inc., priority 2019, published 2023)
# Test system: MC38 syngeneic mouse tumor model
# Assay: MC38 syngeneic mouse tumor model, tumor growth inhibition and survival (Example 1)
# Format: in vivo
# Method: MC38 cells were obtained from American Type Culture Collection (ATCC) and cultured in Roswell Park Memorial Institute (RPMI1640) supplemented with 10% fetal bovine serum (FBS). All cells were maintained in a humidified incubator at 37° C. with 5% carbon dioxide (CO2). Female C57/BL6 mice were obtained from Jackson Laboratories at 8 weeks of age. To generate the syngeneic model, 0.5 million MC38 tumor cells were subcutaneously implanted into the right flank of female C57/BL6 mice. Tumor bearing mice were randomized into six treatment groups based on average tumor sizes of approximately 70 mm^3 per group, on Day 9 post tumor cell implantation. […]
# Tumor volumes were measured three times a week. Tumor volume was calculated based on two-dimensional caliper measurement with cubic millimeter volume calculated using the formula (length×width2)×0.5. […] Statistical significance determined using the Holm-Sidak method, with alpha=0.05.
smiles,measurement,setting,value
"C[C@@]1(O)CCC[C@H]1n1c(=O)c(C(F)F)cc2cnc(NC3CCN(S(C)(=O)=O)CC3)nc21 [PF-06873600, 6-(difluoromethyl)-8-((1R,2R)-2-hydroxy-2-methylcyclopentyl)-2-(1-(methylsulfonyl)piperidin-4-ylamino)pyrido[2,3-d]pyrimidin-7(8H)-one]",synergy with OX40/4-1BB immune checkpoint modulators (in words),"MC38 syngeneic mouse tumor model, example heading",Synergizes
same,tumor growth inhibition (in words),"MC38 tumors in C57/BL6 mice, Day 27 post-treatment initiation",did not significantly inhibit tumor growth
